Test results reported in patent US12552748B2, “Pyridine (thio)amides as fungicidal compounds” (Bayer Aktiengesellschaft, priority 2020, dated 2026).
Marks after values point to notes of the source that are not given here.

Assay: physchem
Format: physicochemical
Description: Measurement of Log P values as provided herein was performed according to EEC directive 79/831 Annex V.A8 by HPLC (High Performance Liquid Chromatography) on reversed phase columns with the following methods: […] If more than one Log P value is available within the same method, all the values are given and separated by “+”. Calibration was done with straight-chain alkan2-ones (with 3 to 16 carbon atoms) with known Log P values (measurement of Log P values using retention times with linear interpolation between successive alkanones). Lambda-max-values were determined using UV-spectra from 200 nm to 400 nm and the peak values of the chromatographic signals

Row | chromatographic logP | SMILES | LogP
1 |  | C#Cc1c(Cl)ncc(Oc2cccc(C(F)(F)F)c2)c1C(=O)NCC(F)(F)c1ccc(C)cc1C [Compound I-179] | 5.74^[a]
2 |  | COC(=O)c1cccc(Oc2cnc(Cl)cc2C(=O)NCCc2ccc(C)cc2C)c1 [Compound I-147] | 4.20^[a]
3 | 2.95 | O=C(O)c1cc(Cl)nc(F)c1Oc1cccc(C(F)(F)F)c1 [Compound 1-014, 6-chloro-2-fluoro-3-[3-(trifluoromethyl)phenoxy]pyridine-4-carboxylic acid] | 
4 | 3.4 | Cc1ccc(CCNC(=O)c2cc(Cl)ncc2Br)c(C)c1 [Compound 3-001, 5-bromo-2-chloro-N-[2-(2,4-dimethylphenyl)ethyl]pyridine-4-carboxamide] | 
5 |  | Cc1ccc(CCNC(=O)c2cc(C3CC3)ncc2Oc2cccc(C3CC3)c2)c(C)c1 [Compound I-186] | 5.22^[a]
6 |  | Cc1ccc(CCNC(=O)c2cc(C(F)(F)F)ncc2Oc2cccc(C3CC3)c2F)c(C)c1 [Compound I-116] | 5.38^[a]
7 |  | Cc1ccc(C(F)(F)CNC(=O)c2c(Oc3cccc(C(F)(F)F)c3)cnc(Cl)c2N2CCCC2)c(C)c1 [Compound I-230] | 5.49^[a]
8 |  | Cc1cccc(Oc2cnc(Cl)cc2C(=O)NCC(F)(F)c2ccc(C)cc2C)c1 [Compound I-044] | 4.85^[a]
9 |  | Cn1cc(-c2ccc(C(F)(F)CNC(=O)c3cc(Cl)ncc3Oc3cccc(C(F)F)c3)c(Cl)c2)cn1 [Compound I-117] | 3.64^[a]
10 |  | C#Cc1cc(C(=O)O)c(Oc2cccc(C(F)(F)F)c2)cn1 [Compound 1-002] | 2.39^[a]
11 |  | Cc1cc(C(=O)NCC(F)(F)c2ccc(Br)cc2Cl)c(Oc2cccc(C(F)F)c2)cn1 [Compound I-236] | 3.74^[a]
12 |  | O=C(NCC(F)c1ccc(Cl)cc1Cl)c1cc(-c2ccncc2Cl)ncc1Oc1cccc(C(F)(F)F)c1 (racemic) [Compound I-195] | 4.68^[a]
13 |  | Cc1ccc(CCNC(=O)c2cc(Cl)ncc2Oc2cccc(OC(F)F)c2)c(C)c1 [Compound I-136] | 4.43^[a]
14 |  | O=C(NCC(F)(F)c1ccc(C2CC2)cc1Cl)c1cc(C2CC2)ncc1Oc1cccc(C2CC2)c1F [Compound I-216] | 5.54^[a]
15 |  | Cc1ccc(C(F)(F)CNC(=O)c2cc(C3CC3)ncc2Oc2cccc(C3CC3)c2)c(C)c1 [Compound I-239] | 5.41^[a]
16 |  | O=C(NCC(F)(F)c1ccc(C2CC2)cc1Cl)c1cc(Cl)ncc1Oc1cccc(C2CC2)c1 [Compound I-193] | 5.45^[a]
17 | 3.81 | Cc1ccc(C(F)(F)CNC(=O)c2c(Br)cnc(Cl)c2F)c(C)c1 [Compound 3-005, 5-bromo-2-chloro-N-[2-(2,4-dimethylphenyl)-2,2-difluoro-ethyl]-3-fluoro-pyridine-4-carboxamide] | 
18 |  | CCOC(=O)c1ccc(C(F)(F)CNC(=O)c2cc(Cl)ncc2Oc2cccc(C(F)F)c2)c(Cl)c1 [Compound I-120] | 4.47^[a]
19 |  | O=C(NCC(F)c1ccc(Cl)cc1Cl)c1cc(Cl)ncc1Oc1cccc(C2CC2)c1 (racemic) [Compound I-063] | 4.92^[a]
20 |  | Cc1ccc(C(F)CNC(=O)c2cc(C)ncc2Oc2cccc(C(F)F)c2)c(Cl)c1 (stereo not drawn) [Compound I-224] | 3.63^[a]
21 |  | Cc1ccc(C(F)(F)CNC(=O)c2cc(C)ncc2Oc2cccc(C(F)F)c2)c(C)c1 [Compound I-049] | 3.73^[a]
22 |  | O=C(NCCc1ccc2[nH]cnc2c1)c1cc(Cl)ncc1Oc1cccc(C(F)(F)F)c1 [Compound I-197] | 1.82^[a]
23 |  | Cc1ccc(C(F)(F)CNC(=O)c2c(Br)cnc(Cl)c2Cl)c(C)c1 [Compound 3-006] | 3.98^[a]
24 |  | Cc1ccc(C(F)(F)CNC(=O)c2c(Oc3cccc(Cl)c3)cnc(Cl)c2Cl)c(C)c1 [Compound I-175] | 4.85^[a]
25 |  | CC(=O)c1cccc(Oc2cnc(Cl)cc2C(=O)NCCc2ccc(C)cc2C)c1 [Compound I-014] | 3.87^[a]
26 |  | Cc1cccc(Oc2cnc(C)cc2C(=O)NCC(F)c2ccc(C)cc2Cl)c1 (racemic) [Compound I-056] | 3.96^[a]

Row | chromatographic logP | SMILES | LogP
27 |  | Cc1ccc(C(F)CNC(=O)c2cc(C)ncc2Oc2cccc(C3CC3)c2)c(Cl)c1 (racemic) [Compound I-073] | 4.30^[a]
28 |  | O=C(NCCc1ccc(C(F)(F)F)cc1Cl)c1cc(Cl)ncc1Oc1cccc(C(F)(F)F)c1 [Compound I-192] | 4.95^[a]
29 |  | C=Cc1cccc(Oc2cnc(Cl)cc2C(=O)NCC(F)(F)c2ccc(C)cc2C)c1 [Compound I-155] | 4.96^[a]
30 |  | COc1cccc(Oc2cnc(Cl)cc2C(=O)NCCc2ccc(C)cc2C)c1F [Compound I-132] | 4.26^[a]
31 |  | Cc1ccc(C(F)(F)CNC(=O)c2cc(Cl)ncc2Oc2cccc(C(F)F)c2)c(C)c1 [Compound I-038] | 4.35^[a]
32 |  | O=C(NCC(F)c1ccc(Cl)cc1Cl)c1cc(Cl)ncc1Oc1cccc(C(F)F)c1 (racemic) [Compound I-037] | 4.40^[a]
33 |  | COc1cccc(Oc2cnc(Cl)cc2C(=O)O)c1 [Compound 1-007] | 2.34^[a]
34 |  | O=C(O)c1cc(Cl)ncc1Oc1cccc(C(F)F)c1 [Compound 1-006] | 2.48^[a]
35 |  | Cc1ccc(CCNC(=O)c2cc(Cl)ncc2Oc2cnc3ccccc3c2)c(C)c1 [Compound I-223] | 3.34^[a]
36 |  | Cc1ccc(CCNC(=O)c2cc(Cl)ncc2Oc2ccc(OC(F)(F)F)cc2)c(C)c1 [Compound I-165] | 4.97^[a]
37 |  | CCc1cc(C(=O)NCCc2ccc(C)cc2C)c(Oc2cccc(C(F)(F)F)c2)cn1 [Compound I-030] | 4.49^[a]
38 | 2.54 | CC(=O)c1cc(C(=O)O)c(Oc2cccc(C(F)(F)F)c2)cn1 [Compound 1-011, 2-acetyl-5-[3-(trifluoromethyl)phenoxy]pyridine-4-carboxylic acid] | 
39 |  | Cc1ccc(CCNC(=O)c2cc(Cl)ncc2Oc2ccccc2)c(C)c1 [Compound I-133] | 4.41^[a]
40 |  | Cc1cccc(Oc2cnc(C)cc2C(=O)NCC(F)(F)c2ccc(C)cc2C)c1 [Compound I-047] | 4.08^[a]
41 |  | Cc1ccc(C(F)(F)CNC(=O)c2cc(Cl)ncc2Oc2cccc(C(F)(F)F)c2)c(C)c1 [Compound I-005] | 4.77^[a]
42 |  | Cc1ccc(C(F)(F)CNC(=O)c2cc(C3CC3)ncc2Oc2cccc(C3CC3)c2F)c(C)c1 [Compound I-246] | 5.36^[a]
43 |  | O=C(O)c1cc(Cl)ncc1Oc1cccc(Cl)c1 [Compound 1-005] | 2.76^[a]
44 |  | Cc1ccc(CCNC(=O)c2cc(C3CCOC3)ncc2Oc2cccc(C(F)(F)F)c2)c(C)c1 (stereo not drawn) [Compound I-121] | 4.30^[a]
45 |  | Cc1ccc(C(F)(F)CNC(=O)c2ccncc2Oc2cccc(C(F)(F)F)c2)c(C)c1 [Compound I-015] | 3.84^[a]
46 |  | Cc1ccc(C(F)(F)CNC(=O)c2cc(C)ncc2Oc2cccc(C3CC3)c2)c(Cl)c1 [Compound I-071] | 4.39^[a]
47 |  | Cc1cccc(Oc2cnc(C)cc2C(=O)NCC(F)(F)c2ccc(C)cc2Cl)c1 [Compound I-068] | 4.06^[a]
48 |  | O=C(NCC(F)(F)c1ccc(Br)cc1Cl)c1cc(Cl)ncc1Br [Compound 3-004] | 3.68^[a]
49 |  | Cc1cc(Br)ccc1C(F)CNC(=O)c1cc(Cl)ncc1Oc1cccc(C(F)(F)F)c1 (racemic) [Compound I-086] | 4.93^[a]
50 |  | CSc1cccc(Oc2cnc(Cl)cc2C(=O)NCCc2ccc(C)cc2C)c1F [Compound I-237] | 4.69^[a]
51 |  | COc1cccc(Oc2cnc(Cl)cc2C(=O)NCCc2ccc(C)cc2C)c1 [Compound I-252] | 4.42^[a]
